One test has as its system MiaPaCa-2. Description: Cell viability assay (resazurin), MiaPaCa-2. The class given is cell-based. To be noted: Homo sapiens, MIA PaCa-2; MiaPaCa-2 pancreatic cancer cells. The procedure:
(§1) Protocol for Cell Viability Assay in Different Cell Lines for CHK-1 Inhibitors:
(§2) Cells were allowed to grow at 37° C. for 24 hr (adherent cells) in 5% CO2 (culture conditions) in a Nuaire incubator (humidified). Following 24 hr (adherent cells), serially diluted compounds (100 μl) were added to the culture plate (immediately after plating in case of suspension cells) and the cultures were further incubated in culture conditions for 72-144 hr depending on the cell type. Experiment was terminated at the completion of respective incubation with drug by replacing the medium with 100 μl of 1 mM of resazurin (R7017; Sigma) prepared in culture medium and the plates were further incubated in culture conditions for 4 hr. In case of 144 hr incubation with the drug, the drug was replenished once with fresh medium after 72 hr. Fluorescence was then measured using a multimodal plate reader (Biotek Synergy Neo) at an excitation wavelength of 535 nm and emission wavelength of 590 nm to obtain relative fluorescence units. Data analysis was done by subtracting the background fluorescence (only medium blank) value from each reading and then normalizing with the vehicle control (DMSO treated cells) to obtain percent survival/proliferation. Percent survival at different doses was used to calculate IC50 by fitting the curve to the “four-parameter variable slope logistic model” using Prism Graph Pad.
Background: Alamar Blue is a resazurin reagent that responds to reducing activity.

The target of a further test is CHK-1 kinase (Homo sapiens (Human), UniProt O14757). Description: CHK-1 Kinase Assay (Z-LYTE based TR-FRET). The format is biochemical. To be noted: for inhibition at 0.1 µM: 0.1 μM compound, read-out: % Inhibition of CHK-1 enzyme activity @ 0.1 μM; for inhibition at 1 µM: 1 μM compound, read-out: % Inhibition of CHK-1 enzyme activity @ 1 μM; for inhibition at 5 µM: 5 μM compound, read-out: % Inhibition of CHK-1 enzyme activity @ 5 μM. The procedure:
IC50 values of compounds for inhibition of CHK-1 kinase or percent inhibition at defined concentrations were determined by Z-LYTE™ based TR-FRET assay. Kinase reactions were performed in a 10 μL volume in low-volume 384-well plates. The concentration of substrate (Ser Thr 19) was maintained at 2 μM in the assay, and the kinase reaction buffer consisted of 50 mM HEPES pH 7.5, 0.01% BRIJ-35, 10 mM MgCl2, 1 mM EGTA, 2 mM DTT. Serially diluted compounds (3-fold) in DMSO (0.5% in final reaction) were incubated with cocktail of CHK-1 kinase (5 ng/ml; Cat #P3040, ThermoFisher), substrate Ser Thr 19, (2 μM; Cat #PV4529, ThermoFisher), ATP (53 μM; Cat #PV3227, ThermoFisher) and buffer. Kinase reactions were allowed to proceed for 1 hour at room temperature after which 5 μL of a 1:256 dilution of Development Reagent A was added. The plate was allowed to incubate at room temperature for 60 minutes before being read on a BMG Pherastar plate reader using the Z-LYTE™ filter block for Z-LYTE™ TR-FRET. The resulting TR-FRET emission ratio was used to calculate percent inhibition by normalizing with the control using the following formula: — [% Inhibition=1−{(% Phosphorylationsample/% Phosphorylationcontrol (0% Inhibition)}·100] For calculation of IC50, the percent inhibition obtained was plotted against the concentration of inhibitor, and the data was fit to a sigmoidal dose-response curve with a variable slope. The IC50 was calculated from the curve.
For orientation: Time-resolved FRET reads energy transfer from a long-lived donor to a nearby acceptor.

A further test deals with AsPC-1. Description: Cell viability assay (resazurin), AsPC-1. The format is cell-based. To be noted: Homo sapiens, ASPC1; AsPC-1 pancreatic cancer cells. As for the experimental part: as §1, §2
In the next test the test system is THP1. Nature of the test: Cell viability assay (resazurin), THP1. The format is cell-based. To be noted: Homo sapiens, THP-1; THP1 peripheral blood cells. As for the experimental part:
as §1, §2

A further test relates to HCT116. Description: Cell viability assay (resazurin), HCT116. The format is cell-based. To be noted: Homo sapiens, HCT-116; HCT116 colorectal carcinoma cells. As for the experimental part:
as §1, §2

In another test the test system is MDA_MB-231. Description: Cell viability assay (resazurin), MDA_MB-231. To be noted: Homo sapiens, MDA-MB-231; MDA_MB-231 TNBC cells. The format is cell-based. As for the experimental part: as §1, §2
A further test deals with A549. Nature of the test: Cell viability assay (resazurin), A549. The format is cell-based. To be noted: Homo sapiens; A549 lung epithelial carcinoma cells. The procedure: as §1, §2
Another test relates to MV-4-11. Description: Cell viability assay (resazurin), MV-4-11. The class given is cell-based. To be noted: Homo sapiens, MV4-11; MV-4-11 peripheral blood cells. The procedure: as §1, §2
A further test concerns HT-29. Nature of the test: Cell viability assay (resazurin), HT-29. To be noted: Homo sapiens; HT-29 colon cancer cells. The class given is cell-based. As for the experimental part:
as §1, §2

These results are taken from patent US12428395B2, “Heterocyclic compounds as kinase inhibitor and uses thereof” (SPEROGENIX THERAPEUTICS LIMITED, priority 2019, dated 2025).

pIC50: −log10 of the molar value.

Chain of CHK-1 kinase (O14757 whole entry): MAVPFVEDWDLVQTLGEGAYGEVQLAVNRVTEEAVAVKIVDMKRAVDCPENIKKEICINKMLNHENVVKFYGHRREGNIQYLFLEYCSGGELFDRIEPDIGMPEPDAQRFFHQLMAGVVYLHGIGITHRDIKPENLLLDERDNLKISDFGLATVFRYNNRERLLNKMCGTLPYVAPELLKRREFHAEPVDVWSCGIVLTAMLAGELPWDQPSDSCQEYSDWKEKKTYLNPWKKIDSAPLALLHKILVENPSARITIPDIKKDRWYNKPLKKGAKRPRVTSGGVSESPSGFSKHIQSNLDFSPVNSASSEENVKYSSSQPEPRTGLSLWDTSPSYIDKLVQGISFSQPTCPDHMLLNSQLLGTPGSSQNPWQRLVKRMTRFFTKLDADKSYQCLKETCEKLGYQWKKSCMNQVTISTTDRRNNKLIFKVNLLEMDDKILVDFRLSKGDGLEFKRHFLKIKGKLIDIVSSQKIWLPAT

Consider `CN1CCC(Nc2cc(Nc3cnc(C#N)cn3)nnc2C(N)=O)CC1` [1.20, 6-(5-cyanopyrazin-2-ylamino)-4-(1-methylpiperidin-4-ylamino)pyridazine-3-carboxamide], for which, in the test on MiaPaCa-2, the pIC50 was 4.63. Further, on CHK-1 kinase, the inhibition at 0.1 µM is 61%, the inhibition at 1 µM amounted to 93% and the inhibition at 5 µM came to 100%. For the same compound, the negative logarithm of the IC50 (pIC50) in the test with AsPC-1 was 4.92. Moreover, in the test with THP1, the pIC50 is 4.66.
As for `CNC(=O)c1nnc(Nc2cnc(C#N)cn2)cc1NC[C@H]1CNCCO1` (stereo in doubt) [1.35, 6-(5-cyanopyrazin-2-ylamino)-N-methyl-4-(morpholin-2-ylmethylamino)pyridazine-3-carboxamide], the pIC50 in the test with HCT116 is 4.76; in the test with MDA_MB-231, 4.81; in the test with A549, less than 4.52; with MV-4-11 it was 5.27; in the test with MiaPaCa-2 it was 4.99; in the test with AsPC-1, 4.93. Besides, the negative-log IC50 (pIC50) in the test with HT-29 is 4.84; in the test on THP1, 5.21. The inhibition at 0.1 µM on CHK-1 kinase turned out to be 86%. Further, the inhibition at 1 µM at CHK-1 kinase was determined as 100%. The inhibition at 5 µM at CHK-1 kinase was 100%.
As for `N#Cc1cnc(Nc2cc(NCC3CNCCO3)c(C(F)(F)F)nn2)cn1` (centres unmarked) [1.7, 2-((6-(5-cyanopyrazin-2-ylamino)-3-(trifluoromethyl)pyridazin-4-ylamino)methyl)morpholin-4-ium 2,2,2-trifluoroacetate], the pIC50 in the test with MiaPaCa-2, in the test with HT-29 and in the test on THP1 was less than 4.52 each time.
With `CNC(=O)c1nnc(Nc2cnc(C#N)cn2)cc1NCC1CNCCO1` (centres unmarked) [1.11, 6-(5-cyanopyrazin-2-ylamino)-N-methyl-4-(morpholin-2-ylmethylamino)pyridazine-3-carboxamide], the pIC50 in the test with HCT116 is 4.76; with MDA_MB-231, 4.89; in the test with A549, 4.94; with MV-4-11, 5.27; with MiaPaCa-2, 4.87; in the test on AsPC-1, 5.19. The negative-log IC50 (pIC50) is 4.83 in the test on HT-29 and 5.37 in the test on THP1. Further, at CHK-1 kinase, the inhibition at 0.1 µM was 91%. Further, the inhibition at 1 µM at CHK-1 kinase amounted to 100%. The inhibition at 5 µM at CHK-1 kinase was found to be 100%.
Regarding `Cn1cc(Nc2cc(NCC3CNCCO3)c(-c3ccccc3)nn2)cn1` (centres unmarked) [1.4, N3-(1-methyl-1H-pyrazol-4-yl)-N5-(morpholin-2-ylmethyl)-6-phenylpyridazine-3,5-diamine], on CHK-1 kinase, the inhibition at 1 µM amounted to 3% and the inhibition at 5 µM was determined as 5%.
On to `CN(C)C(=O)c1nnc(Nc2cnc(C#N)cn2)cc1NCC1CCNCC1` [1.32, 6-(5-cyanopyrazin-2-ylamino)-N,N-dimethyl-4-(piperidin-4-ylmethylamino)pyridazine-3-carboxamide], for which, on CHK-1 kinase, the inhibition at 0.1 µM is 3%, the inhibition at 1 µM turned out to be 3% and the inhibition at 5 µM turned out to be 15%.
With `N#Cc1cnc(Nc2cc(NCC3CCNCC3)c(-c3ccc(Oc4ccccc4)cc3)nn2)cn1` [1.22, 5-(6-(4-phenoxyphenyl)-5-(piperidin-4-ylmethylamino)pyridazin-3-ylamino)pyrazine-2-carbonitrile], on CHK-1 kinase, the inhibition at 0.1 µM is 8%, the inhibition at 1 µM was found to be 27% and the inhibition at 5 µM is 65%.
For the compound `CNC(=O)c1nnc(Nc2cnc(C#N)cn2)cc1NCC1CCN(C)CC1` [1.19, 6-(5-cyanopyrazin-2-ylamino)-N-methyl-4-((1-methylpiperidin-4-yl)methylamino)pyridazine-3-carboxamide], the figures for the negative-log IC50 (pIC50) in the test with MiaPaCa-2, with AsPC-1 and in the test with THP1 were 4.58, 5.07 and 4.88, respectively. Besides, the inhibition at 0.1 µM on CHK-1 kinase came to 49%. On CHK-1 kinase, the inhibition at 1 µM was 90%. For the same compound, at CHK-1 kinase, the inhibition at 5 µM was 99%.
For the compound `CC(C)Oc1nnc(Nc2cnc(C#N)cn2)cc1NCC1CCNCC1` [1.31, 5-(6-isopropoxy-5-(piperidin-4-ylmethylamino)pyridazin-3-ylamino)pyrazine-2-carbonitrile], on CHK-1 kinase, the inhibition at 0.1 µM came to 0%, the inhibition at 1 µM came out at 11% and the inhibition at 5 µM turned out to be 25%.
For `CNC(=O)c1nnc(Nc2cnc(C#N)cn2)cc1NCC1CCOCC1` [1.30, 6-(5-cyanopyrazin-2-ylamino)-N-methyl-4-((tetrahydro-2H-pyran-4-yl)methylamino)pyridazine-3-carboxamide] the same measures were 28%, 78% and 97%.
On to `N#Cc1cnc(Nc2cc(NCC3CCNCC3)c(OCC(F)(F)F)nn2)cn1` [1.33, 5-(5-(piperidin-4-ylmethylamino)-6-(2,2,2-trifluoroethoxy)pyridazin-3-ylamino)pyrazine-2-carbonitrile], for which, on CHK-1 kinase, the inhibition at 0.1 µM was found to be 10%, the inhibition at 1 µM worked out at 35% and the inhibition at 5 µM is 75%.
For `N#Cc1cnc(Nc2cc(NCC3CCNCC3)c(-c3cccc4[nH]ccc34)nn2)cn1` [1.24, 5-(6-(1H-indol-4-yl)-5-(piperidin-4-ylmethylamino)pyridazin-3-ylamino)pyrazine-2-carbonitrile] the same measures were 2%, 2% and 34%.
For the compound `N#Cc1cnc(Nc2cc(NCC3CCNCC3)c(C(F)(F)F)nn2)cn1` [1.8, 4-((6-(5-cyanopyrazin-2-ylamino)-3-(trifluoromethyl)pyridazin-4-ylamino)methyl)piperidinium 2,2,2-trifluoroacetate], the negative logarithm of the IC50 (pIC50) on CHK-1 kinase was 5.24.
For `N#Cc1cnc(Nc2cc(NCC3CCNCC3)c(-c3cccc(N4CCCCC4)c3)nn2)cn1` [1.25, 5-(6-(3-(piperidin-1-yl)phenyl)-5-(piperidin-4-ylmethylamino)pyridazin-3-ylamino)pyrazine-2-carbonitrile], at CHK-1 kinase, the inhibition at 0.1 µM worked out at 8%, the inhibition at 1 µM came out at 10% and the inhibition at 5 µM stood at 42%.
For `N#Cc1cnc(Nc2cc(NCC3CCNCC3)c(C3CC3)nn2)cn1` [1.18, 5-(6-cyclopropyl-5-(piperidin-4-ylmethylamino)pyridazin-3-ylamino)pyrazine-2-carbonitrile] the same measures were 6%, 24% and 59%.
The corresponding values for `N#Cc1cnc(Nc2cc(NCC3CCOCC3)c(C(N)=O)nn2)cn1` [1.29, 6-(5-cyanopyrazin-2-ylamino)-4-((tetrahydro-2H-pyran-4-yl)methylamino)pyridazine-3-carboxamide] are 19%, 60% and 93%.
In the case of `N#Cc1cnc(Nc2cc(NCC3CCNCC3)c(-c3ccccc3)nn2)cn1` [1.1, 5-((6-phenyl-5-((piperidin-4-ylmethyl)amino)pyridazin-3-yl)amino)pyrazine-2-carbonitrile], in the test with HCT116, the negative-log IC50 (pIC50) is less than 4.52. For the same compound, on CHK-1 kinase, the inhibition at 1 µM worked out at 15% and the inhibition at 5 µM came out at 32%.
On to `N#Cc1cnc(Nc2cc(NCC3CNCCO3)c(C(=O)NC3CC3)nn2)cn1` (centres unmarked) [1.12, 6-(5-cyanopyrazin-2-ylamino)-N-cyclopropyl-4-(morpholin-2-ylmethylamino)pyridazine-3-carboxamide], for which the pIC50 with MiaPaCa-2 was 4.63; with AsPC-1, 4.89; with HT-29, less than 4.52; with THP1, 4.93. In addition, the inhibition at 0.1 µM on CHK-1 kinase is 63%. The inhibition at 1 µM at CHK-1 kinase came to 96%. Moreover, the inhibition at 5 µM at CHK-1 kinase worked out at 98%.

The pIC50 is the IC50 on a negative log10 scale, so that one unit is a factor of ten. A word on the inhibition: it is how much of the control response was suppressed.
